In one assay the test system is VAR isolate V74-227. Put plainly: organism not typed. The class given is cell-based, variola. The following applies: Vero, read-out: IC50, VAR isolate V74-227.
For another assay, the system named is VAR isolate Kali-Muthu. Put plainly: organism not typed. It counts as cell-based, variola. The settings on record: Vero, read-out: IC50, VAR isolate Kali-Muthu.
In a further assay the test system is VAR isolate K1629. Put plainly: organism not typed. The class given is cell-based, variola. The following applies: Vero, read-out: IC50, VAR isolate K1629.
The next assay relates to VAR isolate 7125. Put plainly: organism not typed. It counts as cell-based, variola. The settings on record: Vero, read-out: IC50, VAR isolate 7125.
The test system of a further assay is VAC. The following applies: cited from earlier work.
The test system of a further assay is VAR isolate Rumbec. Put plainly: organism not typed. It counts as cell-based, variola. The settings on record: Vero, read-out: IC50, VAR isolate Rumbec.
The next assay concerns VAR isolate V70-222. Put plainly: organism not typed. The class given is cell-based, variola. The following applies: Vero, read-out: IC50, VAR isolate V70-222.
The next assay concerns VAR isolate Juba. Put plainly: organism not typed. It counts as cell-based, variola. The settings on record: Vero, read-out: IC50, VAR isolate Juba.
In another assay the test system is VAR isolate Shahzaman. Put plainly: organism not typed. It counts as cell-based, variola. The settings on record: Vero, read-out: IC50, VAR isolate Shahzaman.
A further assay has as its system VAR isolate V70-46. Put plainly: organism not typed. It counts as cell-based, variola. The settings on record: Vero, read-out: IC50, VAR isolate V70-46.
For assay [1], the system named is VAC, including recombinant VAC. The settings on record: mouse, in vivo; cited from earlier work.

We go through two compounds from PMC9533837 (Antiviral Research, 2003).

≈ marks a conversion by molar mass, not a printed value.

In the case of `Nc1ccn(C[C@@H](CO)OCP(=O)(O)O)c(=O)n1` [Cidofovir, 1-[(S)-3-hydroxy-2-(phosphonomethoxy)-propyl]cytosine], the IC50 in the assay with VAR isolate V74-227 was found to be 10 µg/mL (≈ 35.8 µM); in the assay on VAR isolate Kali-Muthu, 11 µg/mL (≈ 39.4 µM); in the assay on VAR isolate K1629 it was 17 µg/mL (≈ 60.9 µM); in the assay on VAR isolate 7125 it was 12 µg/mL (≈ 43 µM); in the assay with VAR isolate Rumbec it was 10 µg/mL (≈ 35.8 µM); with VAR isolate V70-222, 12 µg/mL (≈ 43 µM). The IC50 in the assay with VAR isolate Juba amounted to 14 µg/mL (≈ 50.1 µM); in the assay on VAR isolate Shahzaman, 11 µg/mL (≈ 39.4 µM); in the assay with VAR isolate V70-46 it was 7 µg/mL (≈ 25.1 µM). The “activity in vivo, VAC mouse model” value with VAC is recorded as “active in vivo”.

Consider `NC(=O)c1ncn([C@@H]2O[C@H](CO)[C@@H](O)[C@H]2O)n1` [Ribavirin], for which the IC50 with VAR isolate V74-227 worked out at 54 µg/mL (≈ 221 µM); in the assay on VAR isolate K1629, 24 µg/mL (≈ 98.3 µM); in the assay on VAR isolate 7125, 37 µg/mL (≈ 152 µM); in the assay on VAR isolate V70-222, 221 µg/mL (≈ 905 µM); in the assay on VAR isolate Shahzaman, 15 µg/mL (≈ 61.4 µM); in the assay on VAR isolate V70-46 it was 45 µg/mL (≈ 184 µM). In assay [1], the “activity in murine tailpox models” value is “active”.
